Data taken from patent US10723727B2, “Tubulysin analogs and methods for their preparation” (priority 2016, dated 2020).

Assays:
[1] = molecular target: T1, tubulin/RB3-stathmin-like-domain (RB3-SLD-tdm) complex (Sus scrofa, UniProt P02550+P02554); assay: Tubulin Peptide-Binding Site Competition Assay (fluorescence polarization); design: species or system Porcine; conditions: FP competition with BODIPY-labeled vinca peptide probe; read after five hours at 22° C.; read-out: Tubulin Peptide-Binding Site Competition Assay IC50
T1 construct: purchased Cytoskeleton, Inc. T240; host or cells: RB3-SLD was made in house in E. coli
Protocol: Tubulin Peptide-Binding Site Competition Assay
Tubulin binding potency was measured for payloads or cysteine-capped linker-payloads using a fluorescence polarization (FP) competition assay. The binding of a BODIPY-labeled vinca peptide probe (# B31) to a tubulin/RB3-stathmin-like-domain (RB3-SLD-tdm) complex generates a high FP signal, which can be decreased when mixing with test compounds that compete with the FP probe. The order of addition for the reagents in the FP assay was designed to pre-mix the FP probe with various concentrations of the test compound before mixing them with the tubulin/RB3-SLD-dm complex. The final assay concentrations of the probe, tubulin and RB3-SLD-dm were 3, 6, and 100 nM, respectively. IC50 for each test compound is obtained by fitting the dose-dependent FP signal change using GraphPad Prism version 5 software (La Jolla, Calif.) while Ki is converted from the IC50 using the equations described previously (Nikolovska-Coleska et al., 2004). The FP signals were measured on an Infinite M1000 (Tecan, San Jose, Calif.) using ProxiPlate-384 F Plus, Black (Perkin-Elmer, Waltham, Mass., Cat #6008260) with 15 μL of solution per well. Sample dilution and mixing were done using a Beckman Biomek XF (Brea, Calif.). Porcine tubulin was purchased from Cytoskeleton, Inc. (Denver, Colo., Cat #T240) and RB3-SLD was expressed in E. coli. and purified on Q and then Superdex75 columns. The FP assay test for each compound was run in duplicates by mixing 6 μL of solution 1 containing 2.5× test compound (2.5× serial dilution from 7.8 μM maximum concentration, 11 total concentrations) and 7.5 nM of the FP probe in 80 mM PIPES, pH 7.0, 0.02% Tween 20, 2 mM MgCl2, 1 mM EGTA and 3% DMSO with 9 μL of solution 2 containing […] porcine tubulin and 167 nM of RB3-SLD-dm peptide ([…]-[…]) on ProxiPlate-384 micro-plates.

[2] = system: N87 (gastric cancer) cells; assay: In vitro cell assay (MTS cell viability), N87; assay type: cell-based; conditions: 96 h, free compounds; 96 hours after treatment
Protocol: (§1) In Vitro Cell Assay Procedure
(§2) Target expressing (BT474 (breast cancer), N87 (gastric cancer), HCC1954 (breast cancer), MDA-MB-361-DYT2 (breast cancer)) or non-expressing (HT-29) cells were seeded in 96-well cell culture plates for 24 hours before treatment. Cells were treated with 3-fold serially diluted antibody-drug conjugates or free compounds (i. e. no antibody conjugated to the drug) in duplicate at 10 concentrations. Cell viability was determined by CellTiter 96® AQueous One Solution Cell Proliferation MTS Assay (Promega, Madison Wis.) 96 hours after treatment. Relative cell viability was determined as percentage of untreated control. IC50 values were calculated using a four parameter logistic model #203 with XLfit v4. 2 (IDBS, Guildford, Surry, UK).

[3] = system: MDA-MB-361-DYT2 (breast cancer) cells; assay: In vitro cell assay (MTS cell viability), MDA-MB-361-DYT2; assay type: cell-based; conditions: 96 h, free compounds; 96 hours after treatment
Protocol: as §1, §2

Structure (SMILES) | IC50 [1] | IC50 [2] | IC50 [3]
CC[C@H](C)[C@H](NC(=O)C1(N(C)C)CCCC1)C(=O)N(C)[C@H](C[C@@H](OC(C)=O)c1nc(C(=O)N[C@@H](Cc2ccccc2)C[C@H](C)C(=O)OC)cs1)C(C)C [#B1, methyl (2S,4R)-4-{[(2-{(1R,3R)-1-(acetyloxy)-3-[(N-{[1-(dimethylamino)cyclopentyl]carbonyl}-L-isoleucyl)(methyl)amino]-4-methylpentyl}-1,3-thiazol-4-yl)carbonyl]amino}-2-methyl-5-phenylpentanoate] | 250 nM | 18.9 nM | 19 nM
CCOC(=O)c1ncoc1[C@H](Cc1ccccc1)NC(=O)c1csc([C@@H](C[C@H](C(C)C)N(C)C(=O)[C@@H](NC(=O)[C@H]2CCCCN2C)[C@@H](C)CC)OC(C)=O)n1 [#B39, ethyl 5-[(1S)-1-{[(2-{(1R,3R)-1-(acetyloxy)-4-methyl-3-[methyl(N-{[(2R)-1-methylpiperidin-2-yl]carbonyl}-L-isoleucyl)amino]pentyl}-1,3-thiazol-4-yl)carbonyl]amino}-2-phenylethyl]-1,3-oxazole-4-carboxylate] | 4.7 nM | 1.39 nM | 0.602 nM
CC[C@H](C)[C@H](NC(=O)[C@H]1CCCCN1C)C(=O)N(C)[C@H](C[C@@H](OC(C)=O)c1nc(C(=O)NC(Cc2ccccc2)c2nc(C(=O)O)cs2)cs1)C(C)C (stereo partly drawn) [#B37, 2-(1-{[(2-{(1R,3R)-1-(acetyloxy)-4-methyl-3-[methyl(N-{[(2R)-1-methylpiperidin-2-yl]carbonyl}-L-isoleucyl)amino]pentyl}-1,3-thiazol-4-yl)carbonyl]amino}-2-phenylethyl)-1,3-thiazole-4-carboxylic acid] | 1.3 nM | 228 nM | 240 nM
CCOC(=O)[C@@H](C)C[C@H](Cc1ccccc1)NC(=O)c1csc([C@@H](C[C@H](C(C)C)N(C)C(=O)[C@@H](NC(=O)[C@@]2(C)CCCN2C)[C@@H](C)CC)OC(C)=O)n1 [#B7, 1,2-dimethyl-D-prolyl-N-[(1R,3R)-1-(acetyloxy)-1-(4-{[(2R,4S)-5-ethoxy-4-methyl-5-oxo-1-phenylpentan-2-yl]carbamoyl}-1,3-thiazol-2-yl)-4-methylpentan-3-yl]-N-methyl-L-isoleucinamide] | 11.9 nM | 9.53 nM | 5.15 nM
CC[C@H](C)[C@H](NC(=O)[C@H]1CCCCN1C)C(=O)N(C)[C@H](C[C@@H](OC(C)=O)c1nc(C(=O)NN(Cc2ccccc2)CC(C)C(=O)O)cs1)C(C)C (stereo partly drawn) [#B4, 3-{2-[(2-{(1R,3R)-1-(acetyloxy)-4-methyl-3-[methyl(N-{[(2R)-1-methylpiperidin-2-yl]carbonyl}-L-isoleucyl)amino]pentyl}-1,3-thiazol-4-yl)carbonyl]-1-benzylhydrazinyl}-2-methylpropanoic Acid] | 4.6 nM | 3.38 nM | 2.39 nM
CC[C@H](C)[C@H](NC(=O)[C@H]1CCCCN1C)C(=O)N(C)[C@H](C[C@@H](OC(C)=O)c1nc(C(=O)NCCn2ccccc2=O)cs1)C(C)C [#B41, (1R,3R)-4-methyl-3-[methyl(N-{[(2R)-1-methylpiperidin-2-yl]carbonyl}-L-isoleucyl)amino]-1-[4-{[2-(2-oxopyridin-1(2H)-yl)ethyl]carbamoyl}-1,3-thiazol-2-yl)pentyl acetate] | 4.41 nM | 2 nM | 1.44 nM
CC[C@H](C)[C@H](NC(=O)[C@@]1(C)CCCN1C)C(=O)N(C)[C@H](C[C@@H](OC(C)=O)c1nc(C(=O)NCCCN2CCCC2=O)cs1)C(C)C [#B43, 1,2-dimethyl-D-prolyl-N-[(1R,3R)-1-(acetyloxy)-4-methyl-1-(4-{[3-(2-oxopyrrolidin-1-yl)propyl]carbamoyl}-1,3-thiazol-2-yl)pentan-3-yl]-N-methyl-L-isoleucinamide] | 51.8 nM |  | 
CC[C@H](C)[C@H](NC(=O)[C@@]1(C)CCCN1C)C(=O)N(C)[C@H](C[C@@H](OC(C)=O)c1nc(C(=O)NCCN2CCOCC2)cs1)C(C)C [#B46, 1,2-dimethyl-D-prolyl-N-[(1R,3R)-1-(acetyloxy)-4-methyl-1-(4-{[2-(morpholin-4-yl)ethyl]carbamoyl}-1,3-thiazol-2-yl)pentan-3-yl]-N-isomethyl-L-leucinamide] | 282 nM |  | 
CC[C@H](C)[C@H](NC(=O)[C@@]1(C)CCCN1C)C(=O)N(C)[C@H](C[C@@H](OC(C)=O)c1nc(C(=O)NC2(Cc3ccccc3)CCCCC2)cs1)C(C)C [#B47, 1,2-dimethyl-D-prolyl-N-[(1R,3R)-1-(acetyloxy)-1-{4-[(1-benzylcyclohexyl)carbamoyl]-1,3-thiazol-2-yl}-4-methylpentan-3-yl]-N-methyl-L-isoleucinamide] | 202 nM |  | 
CC[C@H](C)[C@H](NC(=O)C(C)(C)N)C(=O)N(C)[C@H](C[C@@H](OC(C)=O)c1nc(C(=O)N[C@@H](Cc2ccccc2)C[C@H](C)C(=O)OC)cs1)C(C)C [#B35, 2-methylalanyl-N-[(1R,3R)-1-(acetyloxy)-1-(4-{[(2R,4S)-5-methoxy-4-methyl-5-oxo-1-phenylpentan-2-yl]carbamoyl}-1,3-thiazol-2-yl)-4-methylpentan-3-yl]-N-methyl-L-isoleucinamide] | 96.8 nM |  | 
CC[C@H](C)[C@H](NC(=O)[C@@]1(C)CCCN1C)C(=O)N(C)[C@H](C[C@@H](OC(C)=O)c1nc(C(=O)NC(c2ccccc2)c2ccccc2)cs1)C(C)C [#B67, 1,2-dimethyl-D-prolyl-N-[(1R,3R)-1-(acetyloxy)-1-{4-[(diphenylmethyl)carbamoyl]-1,3-thiazol-2-yl}-4-methylpentan-3-yl]-N-methyl-L-isoleucinamide] | 348 nM |  | 
CC[C@H](C)[C@H](NC(=O)[C@@]1(C)CCCN1C)C(=O)N(C)[C@H](C[C@@H](OC(C)=O)c1nc(C(=O)NCC2OCCc3ccccc32)cs1)C(C)C (stereo partly drawn) [#B69, 1,2-dimethyl-D-prolyl-N-[(1R,3R)-1-(acetyloxy)-1-{4-[(3,4-dihydro-1H-isochromen-1-ylmethyl)carbamoyl]-1,3-thiazol-2-yl}-4-methylpentan-3-yl}-N-methyl-L-isoleucinamide] | 29.9 nM |  | 
CC[C@H](C)[C@H](NC(=O)[C@@]1(C)CCCN1C)C(=O)N(C)[C@H](C[C@@H](OC(C)=O)c1nc(C(=O)NC2CCc3ccccc3C2)cs1)C(C)C (stereo partly drawn) [#B57, 1,2-dimethyl-D-prolyl-N-{(1R,3R)-1-(acetyloxy)-4-methyl-1-[4-(1,2,3,4-tetrhydronaphthalen-2-ylcarbamoyl)-1,3-thiazol-2-yl)pentan-3-yl}-N-methyl-L-isoleucinamide] | 78.8 nM |  | 
CC[C@H](C)[C@H](NC(=O)[C@@]1(C)CCCN1C)C(=O)N(C)[C@H](C[C@@H](OC(C)=O)c1nc(C(=O)NCCNC(=O)c2ccccc2)cs1)C(C)C [#B60, 1,2-dimethyl-D-prolyl-N-[(1R,3R)-1-(acetyloxy)-1-(4-{[2-(benzoylamino)ethyl]carbamoyl}-1,3-thiazol-2-yl)-4-methylpentan-3-yl]-N-methyl-L-isoleucinamide] | 108 nM |  | 
CC[C@H](C)[C@H](NC(=O)[C@@]1(C)CCCN1C)C(=O)N(C)[C@H](C[C@@H](OC(C)=O)c1nc(C(=O)NCCc2cncnc2)cs1)C(C)C [#B71, 1,2-dimethyl-D-prolyl-N-[(1R,3R)-1-(acetyloxy)-4-methyl-1-(4-{[2-(pyrimidin-5-yl)ethyl]carbamoyl}-1,3-thiazol-2-yl)pentan-3-yl]-N-methyl-L-isoleucinamide] | 85.1 nM |  | 
CC[C@H](C)[C@H](NC(=O)[C@@]1(C)CCCN1C)C(=O)N(C)[C@H](C[C@@H](OC(C)=O)c1nc(C(=O)NCCc2ccc(-c3ccccc3)cc2)cs1)C(C)C [#B45, 1,2-dimethyl-D-prolyl-N-[(1R,3R)-1-(acetyloxy)-1-(4-{[2-(biphenyl-4-yl)ethyl]carbamoyl}-1,3-thiazol-2-yl)-4-methylpentan-3-yl]-N-methyl-L-isoleucinamide] | 436 nM |  | 
CC[C@H](C)[C@H](NC(=O)[C@@]1(C)CCCN1C)C(=O)N(C)[C@H](C[C@@H](OC(C)=O)c1nc(C(=O)NCCn2ccnc2)cs1)C(C)C [#B48, 1,2-dimethyl-D-prolyl-N-[(1R,3R)-1-(acetyloxy)-1-{4-{[2-(1H-imidazol-1-yl)ethyl]carbamoyl}-1,3-thiazol-2-yl)-4-methylpentan-3-yl]-N-methyl-L-isoleucinamide] | 110 nM |  | 
